Results as given in ChEMBL document CHEMBL5579895, “Discovery of TYRA-300: First Oral Selective FGFR3 Inhibitor for the Treatment of Urothelial Cancers and Achondroplasia” (J Med Chem, 2024).
Converted amounts (≈) assume the structure as drawn.

Legend:
[1] = AUC (last) in monkey at 10 mg/kg, po measured for 24 hrs by LC-MS/MS analysis; assay type: ADME, organism-based, Macaca mulatta; conditions: rhesus monkey, in vivo
RT112/84 [2] = assay: cells; assay type: functional, cell-based; conditions: Homo sapiens
Description: Inhibition of cell viability in human RT112/84 cells harboring FGFR3/TACC3 fusion incubated for 72 to 120 hrs by Cell Titer Glo assay

[3] = Volume of distribution in monkey at 1 mg/kg, iv measured for 24 hrs by LC-MS/MS analysis; assay type: ADME, organism-based, Macaca mulatta; conditions: rhesus monkey, in vivo
RT112/84 [4] = assay: cells; assay type: functional, cell-based; conditions: Homo sapiens; remark: listed apart in the source
Description: Inhibition of cell viability in human RT112/84 cells harboring FGFR3 V555M mutant incubated for 72 to 120 hrs by Cell Titer Glo assay

[5] = biological target: Vascular endothelial growth factor receptor 1 (Homo sapiens, UniProt P17948); assay: Inhibition of human FLT1 by KINOMEscan analysis
Sequence of Vascular endothelial growth factor receptor 1 (P17948 whole entry): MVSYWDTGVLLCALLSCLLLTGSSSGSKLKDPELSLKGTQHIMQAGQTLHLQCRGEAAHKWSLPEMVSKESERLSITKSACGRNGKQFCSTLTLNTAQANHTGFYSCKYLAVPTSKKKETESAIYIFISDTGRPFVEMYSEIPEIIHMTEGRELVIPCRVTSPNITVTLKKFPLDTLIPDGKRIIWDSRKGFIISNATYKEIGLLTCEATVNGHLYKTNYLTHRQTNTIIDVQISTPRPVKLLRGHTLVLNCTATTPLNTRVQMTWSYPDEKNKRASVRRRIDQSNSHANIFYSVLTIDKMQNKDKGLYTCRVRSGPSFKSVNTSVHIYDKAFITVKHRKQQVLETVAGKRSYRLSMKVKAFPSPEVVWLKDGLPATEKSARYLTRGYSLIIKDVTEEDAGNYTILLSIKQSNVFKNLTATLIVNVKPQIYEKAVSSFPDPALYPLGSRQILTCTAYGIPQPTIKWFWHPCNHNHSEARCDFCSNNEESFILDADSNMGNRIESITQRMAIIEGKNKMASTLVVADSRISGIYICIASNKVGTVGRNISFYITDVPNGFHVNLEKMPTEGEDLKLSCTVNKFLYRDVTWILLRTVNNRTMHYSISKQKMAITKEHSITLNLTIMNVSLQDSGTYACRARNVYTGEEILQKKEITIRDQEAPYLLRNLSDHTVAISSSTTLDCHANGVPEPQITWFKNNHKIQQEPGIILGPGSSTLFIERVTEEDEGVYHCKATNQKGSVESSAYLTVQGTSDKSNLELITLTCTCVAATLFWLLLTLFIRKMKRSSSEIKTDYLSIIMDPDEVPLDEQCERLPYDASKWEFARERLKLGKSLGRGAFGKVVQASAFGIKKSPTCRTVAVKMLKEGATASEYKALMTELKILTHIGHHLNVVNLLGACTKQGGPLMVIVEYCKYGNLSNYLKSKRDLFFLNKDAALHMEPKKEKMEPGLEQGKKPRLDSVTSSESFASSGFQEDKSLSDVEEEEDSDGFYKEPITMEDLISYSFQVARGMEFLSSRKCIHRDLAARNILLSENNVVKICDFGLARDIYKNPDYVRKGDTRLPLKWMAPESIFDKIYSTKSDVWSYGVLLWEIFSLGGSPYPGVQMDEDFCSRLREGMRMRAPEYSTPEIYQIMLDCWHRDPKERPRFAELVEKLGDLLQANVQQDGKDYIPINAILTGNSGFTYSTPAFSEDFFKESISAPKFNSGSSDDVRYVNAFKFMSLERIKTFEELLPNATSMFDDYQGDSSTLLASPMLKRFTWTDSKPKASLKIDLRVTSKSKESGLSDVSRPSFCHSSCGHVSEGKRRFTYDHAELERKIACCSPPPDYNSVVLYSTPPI

[6] = Thermodynamic solubility in FaSSIF; assay type: ADME; conditions: read-out: Therm_solubility
[7] = biological target: Fibroblast growth factor receptor 3 (Homo sapiens, UniProt P22607, G380R); assay: Inhibition of FGFR3 G380R mutant (unknown origin) by NanoBRET assay
Sequence of Fibroblast growth factor receptor 3 (Homo sapiens, UniProt P22607, G380R) (P22607 23-806 G380R limits assumed): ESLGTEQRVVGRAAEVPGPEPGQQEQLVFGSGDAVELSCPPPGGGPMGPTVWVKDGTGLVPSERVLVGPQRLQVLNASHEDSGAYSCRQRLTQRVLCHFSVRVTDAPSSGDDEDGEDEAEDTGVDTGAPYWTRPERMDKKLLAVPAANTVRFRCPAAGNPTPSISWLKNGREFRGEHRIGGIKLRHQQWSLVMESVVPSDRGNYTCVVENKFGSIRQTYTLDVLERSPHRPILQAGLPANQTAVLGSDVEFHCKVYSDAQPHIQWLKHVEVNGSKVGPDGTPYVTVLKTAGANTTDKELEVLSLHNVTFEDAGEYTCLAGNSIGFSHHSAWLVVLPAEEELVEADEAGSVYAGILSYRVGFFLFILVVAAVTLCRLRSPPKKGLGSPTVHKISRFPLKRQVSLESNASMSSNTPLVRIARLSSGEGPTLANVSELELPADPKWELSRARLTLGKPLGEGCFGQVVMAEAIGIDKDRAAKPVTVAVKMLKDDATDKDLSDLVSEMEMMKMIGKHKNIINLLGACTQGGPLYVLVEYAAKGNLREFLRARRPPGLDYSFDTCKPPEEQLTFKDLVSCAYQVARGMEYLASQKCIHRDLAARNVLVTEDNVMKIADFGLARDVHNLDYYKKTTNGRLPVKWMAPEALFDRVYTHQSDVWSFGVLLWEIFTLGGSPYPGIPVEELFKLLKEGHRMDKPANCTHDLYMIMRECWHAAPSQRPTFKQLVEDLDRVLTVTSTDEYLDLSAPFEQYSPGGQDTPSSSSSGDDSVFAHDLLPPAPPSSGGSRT

[8] = biological target: Tyrosine-protein kinase JAK3 (Homo sapiens, UniProt P52333); assay: Inhibition of human JAK3 by KINOMEscan analysis
Sequence of Tyrosine-protein kinase JAK3 (P52333 whole entry): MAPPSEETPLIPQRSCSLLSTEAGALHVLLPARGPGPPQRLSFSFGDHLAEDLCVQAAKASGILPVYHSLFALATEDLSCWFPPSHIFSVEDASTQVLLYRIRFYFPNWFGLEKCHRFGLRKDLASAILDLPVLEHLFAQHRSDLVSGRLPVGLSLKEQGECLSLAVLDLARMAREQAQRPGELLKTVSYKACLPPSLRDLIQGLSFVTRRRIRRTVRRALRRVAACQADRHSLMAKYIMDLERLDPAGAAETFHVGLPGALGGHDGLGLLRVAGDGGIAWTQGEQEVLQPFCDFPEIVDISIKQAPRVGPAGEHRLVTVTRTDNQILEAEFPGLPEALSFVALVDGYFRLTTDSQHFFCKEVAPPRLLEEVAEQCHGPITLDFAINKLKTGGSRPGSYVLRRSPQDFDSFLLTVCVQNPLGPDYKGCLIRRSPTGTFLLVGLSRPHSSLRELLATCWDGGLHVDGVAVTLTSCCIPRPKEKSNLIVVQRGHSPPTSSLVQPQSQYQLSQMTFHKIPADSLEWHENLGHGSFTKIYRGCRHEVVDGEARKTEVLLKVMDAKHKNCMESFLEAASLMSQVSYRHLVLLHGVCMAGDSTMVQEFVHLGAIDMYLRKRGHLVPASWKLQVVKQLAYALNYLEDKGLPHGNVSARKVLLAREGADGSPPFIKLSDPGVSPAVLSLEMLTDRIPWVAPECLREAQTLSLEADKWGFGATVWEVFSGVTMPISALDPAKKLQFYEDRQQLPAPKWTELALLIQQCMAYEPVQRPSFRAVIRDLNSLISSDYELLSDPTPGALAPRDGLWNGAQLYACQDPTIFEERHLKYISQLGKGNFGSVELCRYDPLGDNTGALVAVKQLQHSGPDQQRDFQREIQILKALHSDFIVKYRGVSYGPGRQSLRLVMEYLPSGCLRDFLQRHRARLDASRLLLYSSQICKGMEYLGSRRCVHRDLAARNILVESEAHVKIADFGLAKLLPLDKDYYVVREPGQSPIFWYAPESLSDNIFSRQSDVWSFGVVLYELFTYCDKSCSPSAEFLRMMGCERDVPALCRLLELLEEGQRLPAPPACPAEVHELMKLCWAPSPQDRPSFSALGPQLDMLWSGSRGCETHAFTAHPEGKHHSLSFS

[9] = biological target: Vascular endothelial growth factor receptor 2 (Homo sapiens, UniProt P35968); assay: Inhibition of human VEGFR2 by KINOMEscan analysis
Sequence of Vascular endothelial growth factor receptor 2 (P35968 whole entry): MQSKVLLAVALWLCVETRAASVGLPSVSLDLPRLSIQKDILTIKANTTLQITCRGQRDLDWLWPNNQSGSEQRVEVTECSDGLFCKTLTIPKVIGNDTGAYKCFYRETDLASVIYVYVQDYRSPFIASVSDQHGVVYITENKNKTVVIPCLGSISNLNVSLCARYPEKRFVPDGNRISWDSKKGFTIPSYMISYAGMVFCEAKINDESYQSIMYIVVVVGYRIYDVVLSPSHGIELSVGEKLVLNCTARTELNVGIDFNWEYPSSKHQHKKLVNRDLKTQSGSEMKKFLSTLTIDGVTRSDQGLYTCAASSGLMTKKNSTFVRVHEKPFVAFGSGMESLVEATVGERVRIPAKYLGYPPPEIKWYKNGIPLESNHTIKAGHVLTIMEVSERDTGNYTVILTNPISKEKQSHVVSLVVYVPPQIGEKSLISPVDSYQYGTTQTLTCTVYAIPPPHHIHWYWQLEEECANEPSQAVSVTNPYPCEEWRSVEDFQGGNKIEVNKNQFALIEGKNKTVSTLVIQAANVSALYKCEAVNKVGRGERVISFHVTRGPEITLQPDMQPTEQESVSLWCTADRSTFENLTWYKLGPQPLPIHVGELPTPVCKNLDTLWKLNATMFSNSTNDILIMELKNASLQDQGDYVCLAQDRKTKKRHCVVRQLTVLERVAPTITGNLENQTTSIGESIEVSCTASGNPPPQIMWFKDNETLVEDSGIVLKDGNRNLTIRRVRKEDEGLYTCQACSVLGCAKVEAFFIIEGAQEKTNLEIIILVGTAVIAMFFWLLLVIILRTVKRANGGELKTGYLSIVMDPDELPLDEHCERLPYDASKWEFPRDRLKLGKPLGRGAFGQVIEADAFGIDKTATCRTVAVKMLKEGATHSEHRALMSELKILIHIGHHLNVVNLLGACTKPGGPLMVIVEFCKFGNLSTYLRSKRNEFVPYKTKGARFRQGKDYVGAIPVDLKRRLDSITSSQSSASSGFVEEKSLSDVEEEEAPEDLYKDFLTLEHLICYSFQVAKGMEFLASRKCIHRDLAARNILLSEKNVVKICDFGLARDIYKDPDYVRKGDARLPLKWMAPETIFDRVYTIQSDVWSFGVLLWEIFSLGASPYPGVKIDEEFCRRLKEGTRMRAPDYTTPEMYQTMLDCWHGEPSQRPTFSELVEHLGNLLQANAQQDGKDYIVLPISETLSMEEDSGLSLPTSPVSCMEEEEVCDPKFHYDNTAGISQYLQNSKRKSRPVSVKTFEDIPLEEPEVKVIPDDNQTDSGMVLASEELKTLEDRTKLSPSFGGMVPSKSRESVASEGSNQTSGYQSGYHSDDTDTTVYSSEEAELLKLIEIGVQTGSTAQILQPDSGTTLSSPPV

[10] = Tmax in Sprague-Dawley rat at 10 mg/kg, po measured for 24 hrs by LC-MS/MS analysis; assay type: ADME, organism-based; conditions: in vivo
[11] = Half life in Sprague-Dawley rat at 2 mg/kg, iv measured for 24 hrs by LC-MS/MS analysis; assay type: ADME, organism-based; conditions: in vivo
[12] = Half life in dog at 1 mg/kg, iv measured for 24 hrs by LC-MS/MS analysis; assay type: ADME, organism-based, Canis lupus familiaris; conditions: in vivo
[13] = AUC (last) in monkey at 1 mg/kg, iv measured for 24 hrs by LC-MS/MS analysis; assay type: ADME, organism-based, Macaca mulatta; conditions: rhesus monkey, in vivo
[14] = AUC (last) in Sprague-Dawley rat at 2 mg/kg, iv measured for 24 hrs by LC-MS/MS analysis; assay type: ADME, organism-based; conditions: in vivo
[15] = biological target: Fibroblast growth factor receptor 3 (Homo sapiens, UniProt P22607, N540K); assay: Inhibition of FGFR3 N540K mutant (unknown origin) by NanoBRET assay
Sequence of Fibroblast growth factor receptor 3 (Homo sapiens, UniProt P22607, N540K) (P22607 23-806 N540K limits assumed): as the sequence (P22607 23-806 G380R limits assumed) above, with R358G, N518K counted along it

[16] = AUC (last) in Sprague-Dawley rat at 10 mg/kg, po measured for 24 hrs by LC-MS/MS analysis; assay type: ADME, organism-based; conditions: in vivo

Structure (SMILES): C[C@@H](Oc1ccc2[nH]nc(-c3ccc(N4CC5(C4)CN(S(C)(=O)=O)C5)nc3)c2c1)c1c(Cl)cncc1Cl
- AUC(0-t) at 24 h [1]: 15900 ng·h/mL
- IC50 (RT112/84 [2]): 9 nM
- Vd [3]: 0.94 L/kg
- IC50 (RT112/84 [4]): 17 nM
- IC50 [5]: 201 nM
- solubility thermodynamic [6]: 20 µM (≈ 11.2 µg/mL)
- IC50 [7]: 21 nM
- IC50 [8]: 206 nM
- IC50 [9]: 325 nM
- Tmax [10]: 4 h
- half-life [11]: 1.93 h
- half-life [12]: 5.52 h
- AUC(0-t) at 24 h [13]: 1500 ng·h/mL
- AUC(0-t) at 24 h [14]: 1730 ng·h/mL
- IC50 [15]: 73 nM
- AUC(0-t) at 24 h [16]: 3360 ng·h/mL
